Experimental data: paper PMC8037310, “Thrombin-Derived Peptides Potentiate the Activity of Gram-Positive-Specific Antibiotics against Gram-Negative Bacteria” (Molecules, 2021)
Where “and” joins values, the source holds several entries; their conditions need not be identical. Equal values may be shown once. Read-outs that look alike come from different tables or passages of the source. Peptide text beside a SMILES is read from it.

Assays:
[1] = system: defibrinated sheep blood (red blood cells); assay: Hemolysis assay; format: cell-based; details: 200 µg/mL compound, 20 h incubation at 37 °C with defibrinated sheep blood, PBS 0.002% Tween20, absorbance 415 nm, relative to 0.1% Triton X-100; n=3 technical replicates
Method: Defibrinated sheep blood (Thermo Fisher Scientific) and a phosphate-buffered saline (PBS) buffer containing 0.002% Tween20 were used in this assay. The red blood cells were washed with buffer followed by centrifugation (400 g for 15 min at 4 °C). The red blood cells were then normalized to obtain a positive control read-out around 2.5 at 415 nm to stay in the linear range with the maximum sensitivity. A serial dilution of the compounds (200–1.56 µg/mL, 75 µL) was prepared in a 96-well plate. Each plate contained a positive control (0.1% Triton X-100 final concentration, 75 µL) and the negative control (buffer, 75 µL). After addition of normalized blood cells (75 µL), the plates were incubated for 20 h at 37 °C at 500 rpm. The plates were centrifuged (800× g for 5 min at room temperature). For the next step flat-bottom polystyrene plates were prepared with 100 µL buffer in each well. Aliquots of 25 µL supernatant from the centrifuged plates were then transferred to their respective wells in the flat-bottom plate. Absorbance values where measured at 415 nm and corrected for background (negative control) and transformed to a percentage hemolysis relative to the positive control.

[2] = system: E. coli BW25113; assay: Checkerboard assay with erythromycin; format: cell-based, Escherichia coli; details: for MSCery: erythromycin concentration in the combination with the synergist giving the lowest FICi, E. coli BW25113; for MIC of the peptide (MICpep): synergist alone, from checkerboard with erythromycin; for MIC of the peptide (MICpep) / MSCpeptide, minimum synergistic concentration: 20 h 37 °C; for MSCpeptide, minimum synergistic concentration: synergist concentration in the combination with erythromycin giving the lowest FICi, OD600; for FICi: with erythromycin vs E. coli BW25113, synergy defined as FICi ≤ 0.5
Method: (§1) All peptides were screened for antimicrobial activity against E. coli BW25113, E. coli ATCC25922, and E. coli W3110. A select group of the peptides was further tested against E. coli mcr-1, E. coli EQASmcr-1 (EQAS 2016 412016126), E. coli EQASmcr-2 (EQAS 2016 KP37), E. coli EQASmcr-3 (EQAS 2017 2013-SQ352), K. pneumoniae ATCC13883, P. aeruginosa ATCC27853, and A. baumannii ATCC17978. The antimicrobial assay was performed according to CLSI guidelines. Bacteria were plated out directly from their glycerol stocks on blood agar plates, incubated overnight at 37 °C, and then kept in the fridge. The blood agar plates were only used for 2 weeks and then replaced.
(§2) One colony from a blood agar plates was inoculated in Lysogeny Broth (LB) at 37 °C until a 0.5 optical density at 600 nm (OD600) was reached (compared to the sterility control of LB). The bacterial suspension was diluted in fresh LB to 2.0 × 10^6 CFU/mL. The serial dilutions were prepared in polypropylene microtiter plates: a stock of the test compounds was prepared with a 2x final concentration in LB. Moreover, 100 µL of the stock was added to the wells of the top row of which 50 µL was used for the serial dilution. The bottom row of each plate was used as the positive (50 µL of LB) and negative controls (100 µL of LB) (6 wells each). Furthermore, 50 µL of the 2.0 × 10^6 CFU/mL bacterial stock was added to each well except for the negative controls, adding up to a total volume of 100 µL per well. The plates were sealed with a breathable seal and incubated for 20 h at 37 °C and 600 rpm.
(§3) Two 96-well plates were required per compound. A serial dilution of the compound was performed on two plates from row A–G using with LB as medium. Row H was filled with 25 µL medium. On a separate plate a negative control (8 wells, 100 μL medium) was prepared. For all concentrations of antibiotic a specific stock was prepared. 25 µL medium was added to the 0 µg/mL antibiotic columns (plate I, column 1–3). Of each antibiotic stock 25 µL was added to three columns to obtain triplicates for every condition. Both plates contained 50 µL in each well to which 50 µL bacterial stock was added (see the protocol of the MIC assays) and the plates were sealed. After incubation for 20 h at 37 °C while shaking, the breathable seals were removed and the density of the bacterial suspensions measured at 600 nm (OD600) using a Tecan Spark plate reader. The OD600 values were transformed to a 2D gradient with the negative control as minimum and the positive control (wells G1, G2, and G3) as maximum in excel. The FICi was calculated using Equation (1) with a FICi ≤ 0.5 indicating synergy. FICi = (MSCa/MICa) + (MSCb/MICb),(1)
(§4) Calculation of the FICi: MSCa = concentration of the […] in combination with the antibiotic that results in the lowest FICi. MICa = MIC of the antibiotic without synergist (row G). MSCb = concentration of the synergist in combination with the antibiotic that results in the lowest FICi. MICb = MIC of the synergist itself (Column 1–3, plate I).

[3] = system: E. coli BW25113; format: cell-based, Escherichia coli; details: for MSCrif: rifampicin concentration in the combination giving the lowest FICi; for MSCrif / MSCpep: E. coli BW25113; for MICpep: synergist alone, E. coli BW25113, from checkerboard with rifampicin; for MSCpep: synergist concentration in the combination with rifampicin giving the lowest FICi
Method: as §1, §2, §3, §4

[4] = system: E. coli BW25113; assay: microbe, parasite or virus in culture; format: cell-based, Escherichia coli; details: antibiotic without synergist, E. coli BW25113
Method: as §1, §2, §3, §4

SMILES | Hemolysis [1] | MSCery [2] [µg/mL] | MIC of the peptide (MICpep) ([2]; E. coli BW25113, LB) [µg/mL] | MSCpeptide, minimum synergistic concentration ([2]; E. coli BW25113, LB) [µg/mL] | MSCrif [3] [µg/mL] | MICpep [3] [µg/mL] | MSCpep [3] [µg/mL] | FICi [2] | FICi ([3]; with rifampicin vs E. coli BW25113, synergy defined as FICi ≤ 0.5) | FICi ([3]; BW25113, 20 h) | MIC ([2]; Escherichia coli, antibiotic without synergist, E. coli BW25113, LB, read-out: MIC of erythromycin (MICery)) [µg/mL] | MIC of erythromycin (MICery) ([2]; antibiotic without synergist, E. coli BW25113, LB) | MIC ([4]; Escherichia coli, read-out: MIC of novobiocin (MICnovo)) [µg/mL] | MIC of novobiocin (MICnovo) [4] [µg/mL]
CC[C@H](C)[C@H](NC(=O)[C@@H](NC(=O)[C@H](CCCCN)NC(=O)[C@H](CCC(N)=O)NC(=O)[C@@H](NC(=O)[C@H](Cc1c[nH]c2ccccc12)NC(=O)[C@H](CCCCN)NC(=O)[C@H](CCCCN)NC(=O)[C@H](C)NC(=O)[C@H](CCCNC(=N)N)NC(=O)[C@H](Cc1ccccc1)NC(=O)[C@@H](N)C(C)C)[C@@H](C)CC)C(C)C)C(N)=O [compound 11] (H-VFRAKKWIQKVI-NH2) | 1.1% and 1% | 12.5 | 200 | 25 | 0.25 | 25 | 1.563 | – | – | – | – | – | – | –
CC[C@H](C)[C@H](NC(=O)[C@@H](NC(=O)[C@H](CCCCN)NC(=O)[C@H](CCC(N)=O)NC(=O)[C@@H](NC(=O)[C@H](Cc1c[nH]c2ccccc12)NC(=O)[C@H](CCCCN)NC(=O)[C@H](C)NC(=O)[C@H](CC(C)C)NC(=O)[C@H](CCCNC(=N)N)NC(=O)[C@H](Cc1ccccc1)NC(=O)[C@@H](N)C(C)C)[C@@H](C)CC)C(C)C)C(N)=O [compound 12] (H-VFRLAKWIQKVI-NH2) | 30.2% and 30% | 1.563 | 25 | 12.5 | – | 25 | 12.5 | > 0.5 | > 0.5 | – | – | – | – | –
CC[C@H](C)[C@H](NC(=O)[C@@H](NC(=O)[C@H](CCCCN)NC(=O)[C@H](CCC(N)=O)NC(=O)[C@@H](NC(=O)[C@H](Cc1c[nH]c2ccccc12)NC(=O)[C@H](C)NC(=O)[C@H](CCCCN)NC(=O)[C@H](CC(C)C)NC(=O)[C@H](CCCNC(=N)N)NC(=O)[C@H](Cc1ccccc1)NC(=O)[C@@H](N)C(C)C)[C@@H](C)CC)C(C)C)C(N)=O [compound 13] (H-VFRLKAWIQKVI-NH2) | 19.0% | 3.125 | 25 | 12.5 | 2 | 25 | 6.25 | > 0.5 | – | 0.5000 | – | – | – | –
CC[C@H](C)[C@H](NC(=O)[C@@H](NC(=O)[C@H](CCCCN)NC(=O)[C@H](CCC(N)=O)NC(=O)[C@H](C)NC(=O)[C@H](Cc1c[nH]c2ccccc12)NC(=O)[C@H](CCCCN)NC(=O)[C@H](CCCCN)NC(=O)[C@H](CC(C)C)NC(=O)[C@H](CCCNC(=N)N)NC(=O)[C@H](Cc1ccccc1)NC(=O)[C@@H](N)C(C)C)C(C)C)C(N)=O [compound 15] (H-VFRLKKWAQKVI-NH2) | 0.9% and 1% | 12.5 | 100 | 12.5 | 0.25 | 100 | 6.25 | – | – | 0.0938 | – | – | – | –
CC[C@H](C)[C@H](NC(=O)[C@@H](NC(=O)[C@H](CCCCN)NC(=O)[C@H](C)NC(=O)[C@@H](NC(=O)[C@H](Cc1c[nH]c2ccccc12)NC(=O)[C@H](CCCCN)NC(=O)[C@H](CCCCN)NC(=O)[C@H](CC(C)C)NC(=O)[C@H](CCCNC(=N)N)NC(=O)[C@H](Cc1ccccc1)NC(=O)[C@@H](N)C(C)C)[C@@H](C)CC)C(C)C)C(N)=O [compound 16] (H-VFRLKKWIAKVI-NH2) | 3.5% and 4% | 12.5 | 25 | 3.125 | – | 25 | 6.25 | – | – | 0.2656 | – | – | – | –
CC[C@H]1OC(=O)[C@H](C)[C@@H](O[C@H]2C[C@@](C)(OC)[C@@H](O)[C@H](C)O2)[C@H](C)[C@@H](O[C@@H]2O[C@H](C)C[C@H](N(C)C)[C@H]2O)[C@](C)(O)C[C@@H](C)C(=O)[C@H](C)[C@@H](O)[C@]1(C)O [erythromycin, reference compound] | – | – | – | – | – | – | – | – | – | – | 100 to 200 | > 100 µg/mL and 200 µg/mL | – | –
CO[C@@H]1[C@@H](OC(N)=O)[C@@H](O)[C@H](Oc2ccc3c(O)c(NC(=O)c4ccc(O)c(CC=C(C)C)c4)c(=O)oc3c2C)OC1(C)C [novobiocin, reference compound] | – | – | – | – | – | – | – | – | – | – | – | – | > 200 | > 200
CC[C@H](C)[C@H](NC(=O)[C@H](Cc1c[nH]c2ccccc12)NC(=O)[C@H](CCCCN)NC(=O)[C@H](CCCCN)NC(=O)[C@H](CC(C)C)NC(=O)[C@H](CCCNC(=N)N)NC(=O)[C@H](Cc1ccccc1)NC(=O)[C@@H](NC(=O)[C@@H](N)Cc1c[nH]cn1)C(C)C)C(=O)N[C@@H](CCC(N)=O)C(=O)N[C@@H](CCCCN)C(=O)N[C@H](C(=O)N[C@H](C(=O)N[C@@H](CC(=O)O)C(=O)N[C@@H](CCC(N)=O)C(=O)N[C@@H](Cc1ccccc1)C(=O)NCC(=O)N[C@@H](CCC(=O)O)C(=O)O)[C@@H](C)CC)C(C)C [peptide 2] (H-HVFRLKKWIQKVIDQFGE-OH) | – | 25 | 200 | 50 | 0.5 | 200 | 50 | 0.3750 | – | – | – | – | – | –
CC[C@H](C)[C@H](NC(=O)[C@H](Cc1c[nH]c2ccccc12)NC(=O)[C@H](CCCCN)NC(=O)[C@H](CCCCN)NC(=O)[C@H](CC(C)C)NC(=O)[C@H](CCCNC(=N)N)NC(=O)[C@H](Cc1ccccc1)NC(=O)[C@@H](NC(=O)[C@@H](N)Cc1cnc[nH]1)C(C)C)C(=O)N[C@@H](CCC(N)=O)C(=O)N[C@@H](CCCCN)C(=O)N[C@H](C(=O)N[C@H](C(=O)N[C@@H](CC(=O)O)C(=O)N[C@@H](CCC(N)=O)C(=O)N[C@@H](Cc1ccccc1)C(=O)NCC(=O)N[C@@H](CCC(=O)O)C(=O)O)[C@@H](C)CC)C(C)C [peptide 2] (H-HVFRLKKWIQKVIDQFGE-OH) | 8.7% and 9% | – | – | – | – | – | – | – | – | – | – | – | – | –
